Experimental data reported in patent publication US20090105329A1 (priority 2005, published 2009).
Entries after “also recorded” stand apart in the source; their conditions may differ. Like-named read-outs stand apart in the source and are kept apart here.

Legend:
[1] = Plasma pharmacokinetics of SAHA and its two major metabolites (LC-MS/MS) in the phase I study; assay type: in vivo, human
Protocol: Samples are assayed by the HPLC method (Kelly W K, Richon V M, O'Connor O, et al. Clin. Cancer Res. 2003; 9:3578-88) or by LC/MS assay. […] Quantitation of Paclitaxel and total platinum concentrations is done by validated methodology. […] Compartmental modeling is done with the computer program ADAPT II. Non-compartmental modeling is done with the […] function as implemented by the computer program […]. […] The time that Paclitaxel concentrations remain above 0.05 μM is determined using a limited sampling strategy with the 24-hour sample. […] Methods: Eligible patients were those with advanced solid malignancies who were candidates for combination therapy with Carboplatin and Paclitaxel. […] Carboplatin and Paclitaxel were given on Day 1 of each cycle.

[2] = test system: patients with advanced solid malignancies; experiment: Phase I study of SAHA in combination with Carboplatin and Paclitaxel: dose-limiting and other toxicities; assay type: in vivo, human; details: in the combination
Protocol: The study is designed to define dose-limiting and non-dose limiting toxicities associated with this combination, and to obtain evidence of anti-tumor activity.
Both Carboplatin and Paclitaxel are administered on Day 1 of each treatment cycle. […] Each treatment cycle lasts for 3 weeks.
Definition of dose-limiting toxicity (DLT): Toxicities must be attributable to the study drug(s) to constitute DLT. […] If baseline value is elevated prior to drug therapy, an increase is not considered a DLT unless there is an elevation by more than two grades, and it is of clinical significance. Management and dose modifications associated with the above adverse events are outlined below.
Dosing delays and dose modifications: No intra-patient dose escalation is used. Chemotherapy doses may be reduced for hematological and non-hematological effects. Dose adjustments are to be made according to the system showing the greatest degree of toxicity. Toxicity is graded using the National Cancer Institute Common Toxicity Criteria (NCI CTC) for adverse events (version 3.0). Treatment may be delayed no more than two weeks to allow recovery from toxicity. Dose adjustments for toxicity are made according to the following guidelines.
Methods: Eligible patients were those with advanced solid malignancies who were candidates for combination therapy with Carboplatin and Paclitaxel. […] Carboplatin and Paclitaxel were given on Day 1 of each cycle.

[3] = test system: patients with advanced solid malignancies; details: on this schedule; cited from earlier work
[4] = test system: carcinogen-induced (N-methylnitrosourea) mammary tumors; details: rats, SAHA in their diet over the 130 days of the study; cited from earlier work
[5] = oral SAHA with food; cited from earlier work
[6] = human, plasma, po, oral SAHA, patients, plasma, Example 8, read-out: t1/2 (elimination half life) (converted)

## O=C(O)CCC(=O)Nc1ccccc1 [4-Anilino-4-oxobutanoic acid]
[1]; human, plasma, po, Example 9, further results, patients after oral SAHA, read-out: t1/2 of acid metabolite (converted)
  half-life: 4.1 ± 1.3 h
[1]; [6]
  half-life: ~6 h
[1]; metabolite in plasma after oral SAHA, fold greater than SAHA Cmax
  Cmax relative to SAHA Cmax: 1.5-7 fold

## [NH2][Pt]1([NH2])[O]C(=O)C2(CCC2)C(=O)[O]1 [Carboplatin, platinum, diammine [1,1-cyclobutane-dicarboxylato (2-)-0,0′]-, (SP-4-2)]
[2]; Day 1, 3 week cycles
  Dose recommended for phase II studies: 6 AUC

## CC(=O)O[C@H]1C(=O)[C@@]2(C)[C@H]([C@H](OC(=O)c3ccccc3)[C@]3(O)C[C@H](OC(=O)[C@H](O)[C@@H](NC(=O)c4ccccc4)c4ccccc4)C(C)=C1C3(C)C)[C@]1(OC(C)=O)CO[C@@H]1C[C@@H]2O [Paclitaxel, 5-beta, 20-epoxy-1,2-alpha, 4,7-beta, 10-beta, 13-alpha-hexahydroxytax-11-en-9-one 4,10-diacetate 2-benzoate 13-ester with (2R,3S)—N-benzoyl-3-phenylisoserine]
[2]; Day 1, 3 week cycles
  Dose recommended for phase II studies: 200 mg/m^2

## O=C(CCCCCCC(=O)Nc1ccccc1)NO[C@@H]1O[C@H](C(=O)O)[C@@H](O)[C@H](O)[C@H]1O [SAHA glucuronide]
[1]; human, in vivo, po
  t1/2 (elimination half life): approximately 2 h

## O=C(CCCCCCC(=O)Nc1ccccc1)NO [SAHA, N-Hydroxy-N′-phenyl octanediamide]
[2]; PO QD (Days 1-14), 3 week cycles
  Dose recommended for phase II studies: 400 mg
[1]; Day -4 (SAHA alone) vs Day 1 (with Carboplatin and Paclitaxel)
  effect of Carboplatin and Paclitaxel on SAHA pharmacokinetics: did not alter SAHA pharmacokinetics; also recorded: not altered
[1]; Example 9, most recent data
  SAHA clearance on Day 1 as compared to Day -4: potential decreased clearance
[1]; [6]
  half-life: 1.6 ± 0.5 h
[1]; human, plasma, po, read-out: Tmax (time to maximum plasma or serum concentration)
  Tmax: 0.5 to 2 h
[1]; oral SAHA 200-400 mg, patients
  AUC versus dose: increased with dose
[1]; oral SAHA, patients
  absorption: rapidly absorbed
[1]; oral SAHA, patients, Example 8
  CL/F (clearance/bioavailability): 5.8 ± 1.7 L/min
[3]
  RP2D of single agent SAHA: 400 mg
[4]
  development and continued growth of carcinogen-induced (N-methylnitrosourea) mammary tumors: effective at inhibiting
[5]
  bioavailability when taken with food: does not alter the bioavailability
